From US20230085307A1, “PYRIDAZINONE COMPOUND AND HERBICIDE” (NISSAN CHEMICAL CORPORATION, priority 2019, published 2023)

Experiments:
[1] = system: rice flat sedge; assay: Test Example 3: herbicidal effect by foliage application, Wagner pot (Table 18, symbol E); type: in vivo, rice flat sedge (Cyperus iria); settings: 320 g/ha
Procedure, shortened: (§1)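 Plants were sown in alluvial soil held under 0.1–0.5 cm standing water and grown 14 days in a greenhouse at 25–30 °C. An emulsifiable formulation, water-diluted to the set dose, was then sprayed onto the foliage, and effects were scored three weeks later using previously defined criteria.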

[2] = system: redroot pigweed; assay: Test Example 5: herbicidal effect by foliage application, plastic box (Table 20, symbol N); type: in vivo, redroot pigweed (Amaranthus retroflexus); settings: foliage application, AAH 320 g/ha, three weeks after application
Procedure, shortened: (§2)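 Plants sown in sterilized diluvial soil and grown 14 days in a greenhouse at 25° C to 30° C, then sprayed on the foliage with the compound's emulsion diluted in water to a predetermined herbicide amount. Injury to weeds and crops scored three weeks after application on a visual rating scale.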

[3] = system: green foxtail; assay: Test Example 5: herbicidal effect by foliage application, plastic box (Table 20, symbol G); type: in vivo, green foxtail (Setaria viridis); settings: foliage application, AAH 320 g/ha, three weeks after application
Procedure, shortened: as §2

[4] = system: barnyard grass; assay: Test Example 4: herbicidal effect by soil treatment (Table 19, symbol H); type: in vivo, barnyard grass (Echinochloa crus-galli); settings: AAH 320 g/ha
Procedure, shortened: (§3)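 Three weeks of greenhouse growth at 25° C. to 30° C. followed a uniform surface spray of water-diluted emulsion at a predetermined herbicide amount. Seeds had been sown beforehand under about 1.5 cm of sterilized diluvial soil. Grading followed criteria set out in an earlier test.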

[5] = system: velvetleaf; assay: Test Example 5: herbicidal effect by foliage application, plastic box (Table 20, symbol M); type: in vivo, velvetleaf (Abutilon theophrasti); settings: foliage application, AAH 320 g/ha, three weeks after application
Procedure, shortened: as §2

[6] = system: lambsquarters; assay: Test Example 5: herbicidal effect by foliage application, plastic box (Table 20, symbol O); type: in vivo, lambsquarters (Chenopodium album); settings: foliage application, AAH 320 g/ha, three weeks after application
Procedure, shortened: as §2

[7] = system: southern crabgrass; assay: Test Example 4: herbicidal effect by soil treatment (Table 19, symbol F); type: in vivo, southern crabgrass (Digitaria ciliaris); settings: AAH 320 g/ha
Procedure, shortened: as §3

[8] = system: blackgrass; assay: Test Example 4: herbicidal effect by soil treatment (Table 19, symbol J); type: in vivo, blackgrass (Alopecurus myosuroides); settings: AAH 320 g/ha
Procedure, shortened: as §3

[9] = system: barnyard grass; assay: Test Example 5: herbicidal effect by foliage application, plastic box (Table 20, symbol H); type: in vivo, barnyard grass (Echinochloa crus-galli); settings: foliage application, AAH 320 g/ha, three weeks after application
Procedure, shortened: as §2

[10] = system: barnyard grass; assay: Test Example 3: herbicidal effect by foliage application, Wagner pot (Table 18, symbol H); type: in vivo, barnyard grass (Echinochloa crus-galli); settings: 320 g/ha
Procedure, shortened: as §1

[11] = system: blackgrass; assay: Test Example 5: herbicidal effect by foliage application, plastic box (Table 20, symbol J); type: in vivo, blackgrass (Alopecurus myosuroides); settings: foliage application, AAH 320 g/ha, three weeks after application
Procedure, shortened: as §2

[12] = system: Italian ryegrass; assay: Test Example 4: herbicidal effect by soil treatment (Table 19, symbol K); type: in vivo, Italian ryegrass (Lolium multiflorum); settings: AAH 320 g/ha
Procedure, shortened: as §3

[13] = system: lambsquarters; assay: Test Example 4: herbicidal effect by soil treatment (Table 19, symbol O); type: in vivo, lambsquarters (Chenopodium album); settings: AAH 320 g/ha
Procedure, shortened: as §3

[14] = system: Chinese sprangletop; assay: Test Example 3: herbicidal effect by foliage application, Wagner pot (Table 18, symbol D); type: in vivo, chinese sprangletop (Leptochloa chinensis); settings: 320 g/ha
Procedure, shortened: as §1

[15] = system: persian speedwell; assay: Test Example 4: herbicidal effect by soil treatment (Table 19, symbol R); type: in vivo, Persian speedwell (Veronica persica); settings: AAH 320 g/ha
Procedure, shortened: as §3

[16] = system: redroot pigweed; assay: Test Example 4: herbicidal effect by soil treatment (Table 19, symbol N); type: in vivo, redroot pigweed (Amaranthus retroflexus); settings: AAH 320 g/ha
Procedure, shortened: as §3

[17] = system: persian speedwell; assay: Test Example 5: herbicidal effect by foliage application, plastic box (Table 20, symbol R); type: in vivo, Persian speedwell (Veronica persica); settings: foliage application, AAH 320 g/ha, three weeks after application
Procedure, shortened: as §2

[18] = system: chickweed; assay: Test Example 5: herbicidal effect by foliage application, plastic box (Table 20, symbol P); type: in vivo, common chickweed (Stellaria media); settings: foliage application, AAH 320 g/ha, three weeks after application
Procedure, shortened: as §2

[19] = system: wild oat; assay: Test Example 5: herbicidal effect by foliage application, plastic box (Table 20, symbol I); type: in vivo, wild oat (Avena fatua); settings: foliage application, AAH 320 g/ha, three weeks after application
Procedure, shortened: as §2

[20] = system: windgrass; assay: Test Example 5: herbicidal effect by foliage application, plastic box (Table 20, symbol L); type: in vivo, windgrass (Apera spica-venti); settings: foliage application, AAH 320 g/ha, three weeks after application
Procedure, shortened: as §2

[21] = system: velvetleaf; assay: Test Example 4: herbicidal effect by soil treatment (Table 19, symbol M); type: in vivo, velvetleaf (Abutilon theophrasti); settings: AAH 320 g/ha
Procedure, shortened: as §3

[22] = system: Italian ryegrass; assay: Test Example 5: herbicidal effect by foliage application, plastic box (Table 20, symbol K); type: in vivo, Italian ryegrass (Lolium multiflorum); settings: foliage application, AAH 320 g/ha, three weeks after application
Procedure, shortened: as §2

[23] = system: chickweed; assay: Test Example 4: herbicidal effect by soil treatment (Table 19, symbol P); type: in vivo, common chickweed (Stellaria media); settings: AAH 320 g/ha
Procedure, shortened: as §3

[24] = system: false cleavers; assay: Test Example 4: herbicidal effect by soil treatment (Table 19, symbol Q); type: in vivo, false cleavers (Galium spurium); settings: AAH 320 g/ha
Procedure, shortened: as §3

[25] = system: windgrass; assay: Test Example 4: herbicidal effect by soil treatment (Table 19, symbol L); type: in vivo, windgrass (Apera spica-venti); settings: AAH 320 g/ha
Procedure, shortened: as §3

[26] = system: wild oat; assay: Test Example 4: herbicidal effect by soil treatment (Table 19, symbol I); type: in vivo, wild oat (Avena fatua); settings: AAH 320 g/ha
Procedure, shortened: as §3

[27] = system: southern crabgrass; assay: Test Example 5: herbicidal effect by foliage application, plastic box (Table 20, symbol F); type: in vivo, southern crabgrass (Digitaria ciliaris); settings: foliage application, AAH 320 g/ha, three weeks after application
Procedure, shortened: as §2

[28] = system: green foxtail; assay: Test Example 4: herbicidal effect by soil treatment (Table 19, symbol G); type: in vivo, green foxtail (Setaria viridis); settings: AAH 320 g/ha
Procedure, shortened: as §3

CCCC(=O)Oc1c(OC)nn(C)c(=O)c1-c1c(-c2ccc(F)c(C)c2)sc2ccccc12 [1-175]
herbicidal effect on E (rice flat sedge), rating 0-5 [1]: 3 (Herbicidal rate of 40% or more and less than 70%)
N: redroot pigweed, herbicidal effect [2]: 0 (Herbicidal rate of 5% or less (almost no effect))
G: green foxtail, herbicidal effect [3]: 0 (Herbicidal rate of 5% or less (almost no effect))
H: barnyard grass, herbicidal effect rating [4]: 0 (Herbicidal rate of 5% or less (almost no effect))
M: velvetleaf, herbicidal effect [5]: 3 (Herbicidal rate of 40% or more and less than 70%)
O: lambsquarters, herbicidal effect [6]: 0 (Herbicidal rate of 5% or less (almost no effect))
F: southern crabgrass, herbicidal effect rating [7]: 0 (Herbicidal rate of 5% or less (almost no effect))
J: blackgrass, herbicidal effect rating [8]: 0 (Herbicidal rate of 5% or less (almost no effect))
H: barnyard grass, herbicidal effect [9]: 0 (Herbicidal rate of 5% or less (almost no effect))
herbicidal effect on H (barnyard grass), rating 0-5 [10]: 0 (Herbicidal rate of 5% or less (almost no effect))
J: blackgrass, herbicidal effect [11]: 0 (Herbicidal rate of 5% or less (almost no effect))
K: Italian ryegrass, herbicidal effect rating [12]: 2 (Herbicidal rate of 20% or more and less than 40%)
O: lambsquarters, herbicidal effect rating [13]: 4 (Herbicidal rate of 70% or more and less than 90%)
herbicidal effect on D (Chinese sprangletop), rating 0-5 [14]: 0 (Herbicidal rate of 5% or less (almost no effect))
R: persian speedwell, herbicidal effect rating [15]: 0 (Herbicidal rate of 5% or less (almost no effect))
N: redroot pigweed, herbicidal effect rating [16]: 4 (Herbicidal rate of 70% or more and less than 90%)
R: persian speedwell, herbicidal effect [17]: 4 (Herbicidal rate of 70% or more and less than 90%)
P: chickweed, herbicidal effect [18]: 5 (Herbicidal rate of 90% or more (almost completely withered))
I: wild oat, herbicidal effect [19]: 0 (Herbicidal rate of 5% or less (almost no effect))
L: windgrass, herbicidal effect [20]: 0 (Herbicidal rate of 5% or less (almost no effect))
M: velvetleaf, herbicidal effect rating [21]: 3 (Herbicidal rate of 40% or more and less than 70%)
K: Italian ryegrass, herbicidal effect [22]: 0 (Herbicidal rate of 5% or less (almost no effect))
P: chickweed, herbicidal effect rating [23]: 0 (Herbicidal rate of 5% or less (almost no effect))
Q: false cleavers, herbicidal effect rating [24]: 0 (Herbicidal rate of 5% or less (almost no effect))
L: windgrass, herbicidal effect rating [25]: 1 (Herbicidal rate of 5% or more and less than 20%)
I: wild oat, herbicidal effect rating [26]: 0 (Herbicidal rate of 5% or less (almost no effect))
F: southern crabgrass, herbicidal effect [27]: 0 (Herbicidal rate of 5% or less (almost no effect))
G: green foxtail, herbicidal effect rating [28]: 1 (Herbicidal rate of 5% or more and less than 20%)
